The text below walks through data of EP4813979A1, “COMPOUND FOR EGFR PROTEIN DEGRADATION AND USE THEREOF” (TYK Medicines, Inc., priority 2023, dated 2025).

For data set [1], the system named is Baf3-L858R-T790M - C797S (Baf3-LTC). Put plainly: Cell anti-proliferation experiment (CTG). Type of data set: cell-based. The essentials:
(§1)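 PC-9 (EGFR exon 19 del), H1975 (T790M/L858R), A431 (wild-type EGFR) and a Ba/F3 clone stably expressing mutant EGFR were seeded at 1500-2500 cells/well, left 24 h, then treated in triplicate with 1:4 dilutions up to 10,000 nM for 72 h. CTG luminescence was normalised to 0.1% DMSO and blank medium; IC50 from curve fit.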

Data set [2] deals with Baf3-19del- T790M -C797S (Baf3-DTC). Briefly: Cell anti-proliferation experiment (CTG). The format is cell-based. The essentials:
as §1

A further data set has as its system PC-9. Briefly: Cell anti-proliferation experiment (CTG). The format is cell-based. To be noted: Homo sapiens, PC-9 (EGFR exon 19 deletion). The procedure, abridged:
as §1

The next data set has as its system H1975. Put plainly: Cell anti-proliferation experiment (CTG). The format is cell-based. To be noted: Homo sapiens, H1975 (EGFR T790M/L858R). The procedure, abridged: as §1
The subject of another data set is A549. Briefly: Cell anti-proliferation experiment (CTG). To be noted: Homo sapiens, A549 (wild-type EGFR). The format is cell-based. The procedure, abridged: (§2)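 Cells were seeded at 1500–2500/well and dosed after ~24 h with compound in a 1:4 dilution series up to 10,000 nM, in triplicate. Viability was read by CTG luminescence after 72 h, normalized to the 0.1% DMSO control and medium blank, and IC50 was obtained by curve fitting.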

For a further data set, the system named is A431. Briefly: Cell anti-proliferation experiment (CTG). The following applies: Homo sapiens, A431 (wild-type EGFR). Type of data set: cell-based. The procedure, abridged: as §1
The subject of the next data set is HCC827. Briefly: Cell anti-proliferation experiment (CTG). The format is cell-based. To be noted: Homo sapiens, HCC827 (exon 19 deletion). The essentials:
as §2

Data set [3] can be described thus: Pharmacokinetic test of CD-1 mice. To be noted: male CD-1 mice, single oral gavage (PO), plasma. The format is in vivo. Also on record: AUC(0-t) / AUC(0-inf): concentration or dose not given beside the values. Here is the method:
Plasma was collected from male CD-1 mice after a single gavage administration of the test substance. The plasma was then analyzed to calculate pharmacokinetic parameters.
The solvent is 5% DMSO + 10% Solutol HS-15 + 85% Saline.
Formulation preparation process: Accurately weighed the compound powder, added appropriate volumes of DMSO, Solutol and physiological saline in sequence, and vortexed sonicate at each step to finally form a homogeneous formulation solution.
Experimental animals were housed in the SPF-grade animal facility of Suzhou Xihua New Drug Development Co., Ltd. (License No.: SYXK(Su)2021-0019). Animals were fed normally for at least 3 days after purchase before the experiment, and each mouse was marked with a tail tag. Animals in the oral administration group were fasted overnight the day before administration, and were resumed feeding 4 hours later, with free access to water. Table 4. Sources and Number of Experimental Animals […]
Before administration, checked the state of the administration formulation and ensured its homogeneity by vortexing, stirring or shaking. Calculated the theoretical administration volume for each CD-1 mouse in each group according to the following formula. Theoretical administration volume (mL); = (Dose (mg⋅kg^−1))/(formulation concentration (mg⋅mL^−1)) × animal body weight (kg) [formula]
Table 5 Sample Collection Information
The collected blood was placed in test tubes containing the anticoagulant EDTA-K2 (15 % EDTA-K2 solution), stored on moist ice, and centrifuged within 45 min (1,500 g, 2-8 °C, 10 min). Plasma was then collected. The plasma was stored in pre-chilled centrifuge tubes, flash-frozen on dry ice, and subsequently stored in an ultra-low temperature freezer at -60 °C or lower until shipment.
A quantitative detection method for the analyte was established using Shimadzu liquid chromatography and Triple Quad™ 6500+AB mass spectrometry. The concentration of the parent drug in plasma was analyzed. The analytical results were controlled for variation using quality control samples, with the accuracy of the quality control samples expected to be between 80% and 120%.
The main pharmacokinetic parameters were calculated using a non-compartmental model in Winnonlin Phoenix software. These parameters included the area under the curve (AUC(0-t) and AUC(0-∞)), elimination half-life (T1/2), maximum plasma concentration (Cmax ), and time to reach maximum plasma concentration (Tmax).

Where [4] appears, read: 72 h, number after the class symbol.
Where [5] appears, read: PC-9, 72 h, number after the class symbol.
[6] abbreviates: NCI-H1975, 72 h, number after the class symbol.
[7] abbreviates: A549, 72 h, number after the class symbol.
Where [8] appears, read: A-431, 72 h, number after the class symbol.
Setting [9] is: HCC827, 72 h, number after the class symbol.

The IC50 is the midpoint of a concentration-inhibition curve. As to `COc1cc(N2CCC(CN3CCN(c4ccc5c(c4)C(=O)N(C4CCC(=O)NC4=O)C5=O)CC3)CC2)c(-c2cnn(C)c2)cc1Nc1ncc(Br)c(Nc2ccc(C3CC3)cc2P(C)(C)=O)n1` (stereo not drawn) [DZL-1, reference compound], the IC50 was 10 to 100 nM in data set [1] (72 h, class symbol); 13.6 nM in data set [1] (setting [4]); 10 to 100 nM in data set [2] (72 h, class symbol); 14.5 nM in data set [2] (setting [4]); 100 to 1000 nM in the data set with PC-9 (PC-9, 72 h, class symbol); 205 nM in the data set with PC-9 (setting [5]). Further, the 50% inhibitory concentration (IC50) is 10 to 100 nM with H1975 (NCI-H1975, 72 h, class symbol); 54.8 nM in the data set on H1975 (setting [6]); above 1000 nM in the data set on A549 (A549, 72 h, class symbol); above 5000 nM with A549 (setting [7]); above 1000 nM with A431 (A-431, 72 h, class symbol); above 5000 nM in the data set on A431 (setting [8]). Moreover, the concentration for half-maximal inhibition (IC50) in the data set with HCC827 (HCC827, 72 h, class symbol) was 100 to 1000 nM; in the data set with HCC827 (setting [9]), 105 nM.
In general, AUC(0-inf) refers to the area under the concentration-time curve extrapolated to infinity. One may read the AUC(0-t) as exposure summed from dosing to a finite time, without extrapolation to infinity. Usually Cmax stands for the highest concentration seen after dosing. As usually defined, the MRT last is a mean duration of stay, worked out from the concentration-time curve. Usually Tmax stands for the time at which the peak concentration occurs. `CCc1cc(Nc2ncc(Cl)c(Nc3ccccc3C(=O)NC)n2)c(OC)cc1N1CCN(C(=O)CN2CCC(c3cc4c(cc3F)c(N3CCC(=O)NC3=O)nn4C)C(F)(F)C2)CC1` (stereo not drawn) [TA-003] displayed an HL_ in data set [3] of 2.45 h. Moreover, the total exposure AUC(0-inf) in data set [3] (mouse) is 20700 ng·h/mL. This compound also registered an AUC(0-t) in data set [3] (mouse) of 20600 ng·h/mL. In addition, in data set [3] (mouse), the concentration peaked (Cmax) at 3410 ng/mL. The MRT last in data set [3] (mouse) came to 5.11 h. Also, in data set [3] (mouse), the Tmax stood at 4 h. The IC50 in data set [1] (72 hours, class symbol) is 100 to 1000 nM; in data set [2] (72 hours, class symbol) it was 100 to 1000 nM; in the data set with PC-9 (72 hours, class symbol), above 1000 nM; in the data set on H1975 (NCI-H1975, 72 hours, class symbol), below 10 nM; with A549 (72 hours, class symbol), above 1000 nM; in the data set with A431 (A-431, 72 hours, class symbol), above 1000 nM. For the same compound, the IC50 in the data set with HCC827 (72 hours, class symbol) was above 1000 nM.
`CCc1cc(Nc2ncc(Cl)c(Nc3ccccc3P(C)(C)=O)n2)c(OC)cc1N1CC2(CCN(C(=O)CN3CCC(c4cc5c(cc4F)c(N4CCC(=O)NC4=O)nn5C)C(F)(F)C3)CC2)C1` (stereo not drawn) [TA-023]: the IC50 was below 10 nM in data set [1] (72 h, class symbol); 8.4 nM in data set [1] (setting [4]); 100 to 1000 nM in data set [2] (72 h, class symbol); 202 nM in data set [2] (setting [4]); 100 to 1000 nM in the data set on PC-9 (PC-9, 72 h, class symbol); 461 nM with PC-9 (setting [5]). The half-inhibitory concentration (IC50) was 10 to 100 nM in the data set with H1975 (NCI-H1975, 72 h, class symbol); 14.7 nM in the data set on H1975 (setting [6]); above 1000 nM in the data set with A549 (A549, 72 h, class symbol); 1260 nM with A549 (setting [7]); above 1000 nM in the data set with A431 (A-431, 72 h, class symbol); 1180 nM with A431 (setting [8]). Further, the IC50 was 100 to 1000 nM with HCC827 (HCC827, 72 h, class symbol) and 593 nM in the data set with HCC827 (setting [9]).
For the compound `CCc1cc(Nc2ncc(Cl)c(Nc3ccccc3P(C)(C)=O)n2)c(OC)cc1N1CCN(C(=O)CN2CCC(c3cc4c(cc3F)c(N3CCC(=O)NC3=O)nn4C)C(F)(F)C2)CC1` (stereo not drawn) [TC-157], the IC50 in data set [1] (72 h, class symbol) was below 10 nM; in data set [1] (setting [4]) it was 4.1 nM; in data set [2] (72 h, class symbol) it was below 10 nM; in data set [2] (setting [4]), 4.1 nM; with PC-9 (PC-9, 72 h, class symbol), 100 to 1000 nM; in the data set with PC-9 (setting [5]) it was 349 nM. The concentration for half-maximal inhibition (IC50) is 10 to 100 nM with H1975 (NCI-H1975, 72 h, class symbol); 24 nM in the data set on H1975 (setting [6]); 100 to 1000 nM in the data set with A549 (A549, 72 h, class symbol); 948 nM in the data set with A549 (setting [7]); above 1000 nM in the data set on A431 (A-431, 72 h, class symbol); 1650 nM with A431 (setting [8]). The IC50 was 100 to 1000 nM in the data set with HCC827 (HCC827, 72 h, class symbol) and 812 nM in the data set on HCC827 (setting [9]).
As for `CCc1cc(Nc2ncc(Cl)c(Nc3ccccc3P(C)(C)=O)n2)c(OC)cc1N1CCN(C(=O)CN2CCC(c3cc4c(cc3F)c(N3CCC(=O)NC3=O)nn4C)CC2)CC1` [TC-213], the 50% inhibitory concentration (IC50) in data set [1] (72 h, class symbol) is below 10 nM; in data set [1] (setting [4]) it was 0.8 nM; in data set [2] (72 h, class symbol) it was below 10 nM; in data set [2] (setting [4]), 8.9 nM; in the data set on PC-9 (PC-9, 72 h, class symbol), 100 to 1000 nM; in the data set with PC-9 (setting [5]), 505 nM. Further, the concentration for half-maximal inhibition (IC50) with H1975 (NCI-H1975, 72 h, class symbol) is 10 to 100 nM; with H1975 (setting [6]), 35.9 nM; in the data set on A549 (A549, 72 h, class symbol), above 1000 nM; in the data set with A549 (setting [7]) it was 1770 nM; in the data set on A431 (A-431, 72 h, class symbol), above 1000 nM; with A431 (setting [8]) it was 1340 nM. In addition, the half-inhibitory concentration (IC50) in the data set with HCC827 (HCC827, 72 h, class symbol) is 10 to 100 nM; in the data set on HCC827 (setting [9]), 53 nM.
